pIC50: −log10 of the molar value.
Key:
[1] = Inhibition of tubulin polymerization
[2] = molecular target: Cyclin-dependent kinase 1/cyclin B1 (Homo sapiens, UniProt P06493); experiment: Inhibition of CDK1/cyclin B; format: protein-complex assay
[3] = molecular target: Cyclin-dependent kinase 5 (Homo sapiens, UniProt Q00535); experiment: Inhibition of CDK5
[4] = molecular target: Glycogen synthase kinase-3 beta (Homo sapiens, UniProt P49841); experiment: Inhibition of GSK3-beta
Chain of Glycogen synthase kinase-3 beta (P49841 whole entry): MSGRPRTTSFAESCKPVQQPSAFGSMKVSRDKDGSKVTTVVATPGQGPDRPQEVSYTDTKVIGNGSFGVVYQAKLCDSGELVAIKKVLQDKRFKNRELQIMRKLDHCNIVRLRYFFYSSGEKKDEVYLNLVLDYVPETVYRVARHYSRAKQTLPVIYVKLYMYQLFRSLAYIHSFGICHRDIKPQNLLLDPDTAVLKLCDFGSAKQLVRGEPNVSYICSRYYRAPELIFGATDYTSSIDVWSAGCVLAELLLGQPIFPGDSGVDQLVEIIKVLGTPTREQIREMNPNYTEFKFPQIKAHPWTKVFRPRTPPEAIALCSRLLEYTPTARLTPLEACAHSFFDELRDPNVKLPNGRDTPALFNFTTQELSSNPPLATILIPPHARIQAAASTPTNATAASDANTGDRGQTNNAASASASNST

Chain of Cyclin-dependent kinase 5 (Q00535 whole entry): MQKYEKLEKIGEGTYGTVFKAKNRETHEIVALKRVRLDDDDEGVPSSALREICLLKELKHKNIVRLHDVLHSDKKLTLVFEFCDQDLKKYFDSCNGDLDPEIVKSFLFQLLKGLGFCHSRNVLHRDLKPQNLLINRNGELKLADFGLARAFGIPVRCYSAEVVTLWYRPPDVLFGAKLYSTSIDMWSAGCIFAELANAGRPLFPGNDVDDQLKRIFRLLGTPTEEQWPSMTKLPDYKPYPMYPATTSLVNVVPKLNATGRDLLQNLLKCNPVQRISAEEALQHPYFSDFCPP
Chain of Cyclin-dependent kinase 1/cyclin B1 (P06493 whole entry): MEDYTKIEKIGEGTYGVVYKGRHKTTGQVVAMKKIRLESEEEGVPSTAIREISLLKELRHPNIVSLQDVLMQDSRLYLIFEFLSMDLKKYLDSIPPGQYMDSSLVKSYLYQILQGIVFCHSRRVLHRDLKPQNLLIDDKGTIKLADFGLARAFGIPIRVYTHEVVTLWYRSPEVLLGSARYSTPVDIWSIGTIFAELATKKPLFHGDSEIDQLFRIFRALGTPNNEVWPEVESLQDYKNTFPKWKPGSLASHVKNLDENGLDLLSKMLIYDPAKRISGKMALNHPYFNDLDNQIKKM
Chain of Cyclin-dependent kinase 1/cyclin B1 (P14635 whole entry, further chain): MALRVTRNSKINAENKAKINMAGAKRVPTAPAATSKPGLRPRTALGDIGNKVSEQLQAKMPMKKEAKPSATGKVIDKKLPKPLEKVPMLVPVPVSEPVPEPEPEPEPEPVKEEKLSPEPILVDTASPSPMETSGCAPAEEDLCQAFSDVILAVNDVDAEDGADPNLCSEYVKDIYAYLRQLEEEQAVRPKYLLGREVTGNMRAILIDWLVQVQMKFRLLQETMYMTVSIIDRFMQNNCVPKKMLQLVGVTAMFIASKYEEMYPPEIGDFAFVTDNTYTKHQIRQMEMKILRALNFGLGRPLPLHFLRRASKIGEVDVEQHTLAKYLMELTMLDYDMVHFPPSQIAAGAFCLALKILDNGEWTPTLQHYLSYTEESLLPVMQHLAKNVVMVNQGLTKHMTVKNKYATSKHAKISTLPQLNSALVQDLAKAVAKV

For `COc1ccc(-c2csc3c2-n2cccc2C3=O)cc1O`, the pIC50 [1] was 5.54 and the pIC50 [2] was 5.26.
In the case of `COc1ccc(-c2coc3c2-n2cccc2C3=O)cc1OC`, the pIC50 [3] was under 4.30, the pIC50 [4] was under 4.30 and the pIC50 [2] was under 4.30.
`O=C1c2[nH]cc(-c3ccc(Cl)cc3)c2-n2cccc21` showed a pIC50 [3] of under 4.30, a pIC50 [4] of under 4.30 and a pIC50 [2] of under 4.30.
For `COc1ccc(-c2csc3c2-n2cccc2C3=O)cc1OCc1ccccc1`, the pIC50 [4] was under 4.30 and the pIC50 [2] was under 4.30.
`O=c1[nH]c2occ(-c3ccc(Br)cc3)c2n2cccc12` gave a pIC50 [3] of under 4.30 and a pIC50 [4] of under 4.30.
`COc1ccc(-c2coc3[nH]c(=O)c4cccn4c23)cc1OC` gave a pIC50 [3] of under 4.30 and a pIC50 [4] of under 4.30.
`COc1ccc(-c2c[nH]c3c2-n2cccc2/C3=N/O)cc1O` showed a pIC50 [3] of 5.49, a pIC50 [4] of 5.26 and a pIC50 [2] of 5.42.
Compound `O=c1[nH]c2[nH]cc(-c3ccc(Cl)cc3)c2n2cccc12` has a pIC50 [3] of under 4.30 and a pIC50 [4] of under 4.30.
In the case of `Cc1ccc(-c2coc3[nH]c(=O)c4cccn4c23)cc1`, the pIC50 [3] was under 4.30 and the pIC50 [4] was under 4.30.
In the case of `COc1ccc(-c2c[nH]c3c2-n2cccc2/C3=N/O)cc1OCc1ccccc1`, the pIC50 [3] was 4.85, the pIC50 [4] was 4.77 and the pIC50 [2] was 5.05.
Compound `O=c1[nH]c2occ(-c3ccc(F)cc3)c2n2cccc12` has a pIC50 [3] of under 4.30 and a pIC50 [4] of under 4.30.
`COc1ccc(-c2c[nH]c3c2-n2cccc2C3=O)cc1OCc1ccccc1` showed a pIC50 [3] of under 4.30, a pIC50 [4] of under 4.30 and a pIC50 [2] of under 4.30.
Work on `COc1ccc(-c2c[nH]c3[nH]c(=O)c4cccn4c23)cc1OC` yielded a pIC50 [3] of under 4.30 and a pIC50 [4] of under 4.30.
`COc1ccc(-c2c[nH]c3c2-n2cccc2C3=O)cc1O` showed a pIC50 [3] of 4.52, a pIC50 [4] of 4.96 and a pIC50 [2] of 4.66.
Compound `O=c1[nH]c2occ(-c3ccc(Cl)c(Cl)c3)c2n2cccc12` has a pIC50 [3] of under 4.30 and a pIC50 [4] of under 4.30.
For `COc1ccc(-c2c[nH]c3c2-n2cccc2C3=O)cc1OC`, the pIC50 [3] was under 4.30 and the pIC50 [4] was under 4.30.
For `COc1ccc(-c2coc3[nH]c(=O)c4cccn4c23)cc1`, the pIC50 [3] was under 4.30 and the pIC50 [4] was under 4.30.
